Here are results for four compounds from US4845121A, “Aci-reductone compounds belonging to the 6,7-disubstituted-3,4-dihydro benzopyan-2H-one class having antiaggregatory properties” (The Ohio State University Research Foundation, priority 1986, dated 1989).

As usually defined, the IC50 is the point on the concentration scale where inhibition reaches its midpoint.

Experiment [1] deals with hyper-aggregatory responses to inducers of the prostaglandin-dependent pathway. To be noted: hyperlipidemic patients; Vargaftig et al. (1981); cited from earlier work.
Experiment [2] relates to human platelets (collagen-induced aggregation). As to conditions: literature; cited from earlier work.
Experiment [3] relates to human platelets (collagen-induced serotonin secretion). To be noted: Witiak et al., J. Med Chem. 25: 90 (1982); cited from earlier work.
Experiment [4] deals with human platelets (ADP-induced aggregation). In words: ADP-induced human platelet aggregation (turbidometric, secondary aggregation). The class given is cell-based. As to conditions: for rank order of potency, aggregation and serotonin secretory responses to ADP and AA: aggregation and serotonin secretion together; for IC50: Homo sapiens, Platelet, inhibitor 1 min before ADP (1-5 uM), secondary aggregation only, mean ± S.E.M., n = 3-9 donors; for fold more potent than clofibric acid as inhibitor of ADP-induced platelet activation: versus clofibric acid 1. How it is done: (§1) The antiaggregatory action of the compounds of the present invention was determined using the following procedure: ADP and AA were obtained from Sigma Chemical Co., (St. Louis, MO). [^14 C]-Serotonin (57 mCi/mmol) and [^3 H]-AA (210 Ci/mmol) were supplied by Amersham (Arlington Heights, IL). U46619 (15S-hydroxy-11α,9α-epoxymethano-prosta-5z,13E-dienoic acid) was purchased from Upjohn Diagnostics (Kalamazoo, MI). Blood was collected from normal human volunteers who reported to be free of medication for at least 10 days prior to blood collection. Washed platelets were prepared and suspended in a modified Tyrode's solution, pH 7.4 as described in Navran, S. S., et al., Thromb. […] The platelet count was adjusted to 3×10^8 /ml for aggregation, secretion and biochemical studies.
(§2) Inhibitors were added one minute prior to induction of platelet activation. Secretion of the contests of platelet dense granules was measured by monitoring the release of radioactivity from platelets prelabeled with [^14 C]-serotonin. […] To study the release of AA from platelet phospholipids, washed platelets were incubated with [^3 H]-AA (3.6 mCi/10^9 platelets) for two hours at room temperature prior to the final centrifugation and resuspension of the washing procedure. Released [^3 H]-AA was quantified from supernatants of stimulated platelet samples in a manner identical to the determination of serotonin secretion.

The test system of experiment [5] is human platelets (arachidonic acid-induced aggregation). In words: Arachidonic acid-induced human platelet aggregation (turbidometric). It counts as cell-based. As to conditions: for IC50: Homo sapiens, Platelet, inhibitor 1 min before AA (0.2-1 mM), mean ± S.E.M., n = 3-9 donors; for fold more potent inhibitor of AA-induced aggregation: implied versus clofibric acid; for antiaggregatory potency relative to clofibric acid (in words): prostaglandin-dependent pathway of platelet activation. Here is the method:
as §1, §2

Experiment [6] has as its system human platelets (U46619, thromboxane A2 agonist-induced aggregation). In words: U46619-induced human platelet aggregation (turbidometric, + ASA). As to conditions: for IC50: Homo sapiens, Platelet, inhibitor 1 min before U46619 (0.3 uM), aspirin 1 mM added, mean ± S.E.M., n = 3-9 donors. It counts as cell-based. How it is done: as §1, §2
The test system of experiment [7] is human platelets (ADP-induced serotonin secretion). Nature of the experiment: ADP-induced [14C]-serotonin secretion. It counts as cell-based. As to conditions: Platelet, inhibitor 1 min before ADP (1-5 uM), mean ± S.E.M., n = 3-9 donors. How it is done: as §1
Inhibitors were added one minute prior to induction of platelet activation. Secretion of the contests of platelet dense granules was measured by monitoring the release of radioactivity from platelets prelabeled with [^14 C]-serotonin. […] Released [^3 H]-AA was quantified from supernatants of stimulated platelet samples in a manner identical to the determination of serotonin secretion.

Experiment [8] concerns human platelets (arachidonic acid-induced serotonin secretion). Nature of the experiment: Arachidonic acid-induced [14C]-serotonin secretion. It counts as cell-based. To be noted: for IC50: Homo sapiens, Platelet, inhibitor 1 min before AA (0.2-1 mM), mean ± S.E.M., n = 3-9 donors. Here is the method:
as §1, §2

For experiment [9], the system named is human platelets (U46619-induced serotonin secretion). Nature of the experiment: U46619-induced [14C]-serotonin secretion (+ ASA). It counts as cell-based. As to conditions: for IC50: Homo sapiens, Platelet, inhibitor 1 min before U46619 (0.3 uM), aspirin 1 mM added, mean ± S.E.M., n = 3-9 donors; for fold more potent than clofibric acid as inhibitor of U46619-evoked serotonin secretion: versus clofibric acid 1. Here is the method: as §1, §2

The test system of experiment [10] is human platelets (thrombin-induced [3H]-AA release). Nature of the experiment: Thrombin-induced [3H]-arachidonic acid release. It counts as cell-based. As to conditions: for IC50: Homo sapiens, Platelet, inhibitor 1 min before thrombin (0.5 U/ml), terminated at 4 min, 3-5 donors; for inhibition of AA release (in words): thrombin-induced AA release / release from platelet membrane phospholipids. How it is done:
(§3) The antiaggregatory action of the compounds of the present invention was determined using the following procedure: ADP and AA were obtained from Sigma Chemical Co., (St. Louis, MO). [^14 C]-Serotonin (57 mCi/mmol) and [^3 H]-AA (210 Ci/mmol) were supplied by Amersham (Arlington Heights, IL). U46619 (15S-hydroxy-11α,9α-epoxymethano-prosta-5z,13E-dienoic acid) was purchased from Upjohn Diagnostics (Kalamazoo, MI). Blood was collected from normal human volunteers who reported to be free of medication for at least 10 days prior to blood collection. Washed platelets were prepared and suspended in a modified Tyrode's solution, pH 7.4 as described in Navran, S. S., et al., Thromb. Res., 33: 449-510 (1984). The platelet count was adjusted to 3×10^8 /ml for aggregation, secretion and biochemical studies.
Platelet aggregation studies were performed according to the turbidometric method of Born, as described in Nature, 194: 927-929 (1962), in a Payton Model 600 dual channel aggregometer interfaced to an Apple microcomputer for acquistion, quantitation, presentation, and management of platelet aggregation data, as described in Huzoor-Akbar, et al., 32 Thromb. Res., 335-341 (1983). Inhibitors were added one minute prior to induction of platelet activation. Secretion of the contests of platelet dense granules was measured by monitoring the release of radioactivity from platelets prelabeled with [^14 C]-serotonin. Malondialdehyde formation induced by AA was determined as described in Huzoor-Akar et al., Biochem Pharmacol., 30: 2013-2020 (1981). To study the release of AA from platelet phospholipids, washed platelets were incubated with [^3 H]-AA (3.6 mCi/10^9 platelets) for two hours at room temperature prior to the final centrifugation and resuspension of the washing procedure. Released [^3 H]-AA was quantified from supernatants of stimulated platelet samples in a manner identical to the determination of serotonin secretion.
The reactions were terminated at 4 minutes and [^3 H]-AA was sampled from platelet supernatants and analyzed as described herein. Data are averages ± S.E.M. from 3-5 donors.

The subject of experiment [11] is human platelets (AA-induced MDA formation). Nature of the experiment: AA-induced malondialdehyde (MDA) formation. It counts as cell-based. As to conditions: Platelet, mean+S.E., N=3-5. Here is the method:
as §3, with “The platelet count was adjusted to 3×10^8 /ml for aggregation, secretion and biochemical studies.” left out
Platelet aggregation studies were performed according to the turbidometric method of Born, as described in Nature, 194: 927-929 (1962), in a Payton Model 600 dual channel aggregometer interfaced to an Apple microcomputer for acquistion, quantitation, presentation, and management of platelet aggregation data, as described in Huzoor-Akbar, et al., 32 Thromb. […] Secretion of the contests of platelet dense granules was measured by monitoring the release of radioactivity from platelets prelabeled with [^14 C]-serotonin. Malondialdehyde formation induced by AA was determined as described in Huzoor-Akar et al., Biochem Pharmacol., 30: 2013-2020 (1981). […]

Molecules are shown by their SMILES. “Also recorded” adds a separate entry of the source.

For `CCOC(=O)C(C)(C)Oc1ccc(Cl)cc1` [clofibrate], in experiment [1], the “effect of therapy on hyper-aggregatory responses (in words)” value is on record as “reverses the hyper-aggregatory responses to inducers of the prostaglandin-dependent pathway”.

With `O=C1OC(c2ccc(Cl)cc2)C(O)=C1O` (stereo not drawn) [compound 2, 2-hydroxytetronic acid aci-reductone], the “inhibition of collagen-induced human platelet aggregation/activation (in words)” value in experiment [2] was “inhibit collagen-inducedhuman platelet aggregation”. Also, the “inhibition of collagen-induced secretion of [14C]-serotonin (in words)” value in experiment [3] is listed as “in a concentration-dependent manner at equivalent doses”.

In the case of `O=c1oc2ccc(Cl)cc2c(O)c1O` [compound IX, 6-chloro-3,4-dihydroxy-2H-1-benzopyran-2-one], in experiment [4], the “inhibition of (secondary wave of) ADP-induced aggregation (in words)” value is “potent inhibitor of thrombin-induced AA release and ADP- or AA-induced aggregation; also recorded: concentration-dependent inhibition”; the “rank order of potency, aggregation and serotonin secretory responses to ADP and AA” value is on record as “benzopyranone analogue>2,3-dihydrobenzofuran analog>clofibric acid”; half-maximal inhibition (IC50) was put at 363 ± 159 µM; the “fold more potent than clofibric acid as inhibitor of ADP-induced platelet activation” value was “about 2 fold”. Besides, in [5], the “inhibition of AA-induced aggregation (in words)” value is “potent inhibitor of thrombin-induced AA release and ADP- or AA-induced aggregation; also recorded: concentration-dependent inhibition”; the “rank order of inhibitory potency, AA-induced aggregation” value was “IX>X>1”; the IC50 is 739 ± 86 µM; the “fold more potent inhibitor of AA-induced aggregation” value is recorded as “approximately 4 fold”. In addition, in [5], the “antiaggregatory potency relative to clofibric acid (in words)” value is given as “more potent antiaggregatory agents than clofibric acid”. Besides, the “inhibition of AA metabolism (in words)” value in [5] (inferred from AA-mediated versus U46619 responses) is listed as “acts as an inhibitor of AA metabolism”. In experiment [6], the “inhibition of U46619-induced aggregation/responses (in words)” value is on record as “inhibits U46619-induced responses in human platelets; also recorded: concentration-dependent inhibitors of U46619-induced aggregation” and the concentration for half-maximal inhibition (IC50) amounted to 1500 ± 160 µM. In experiment [7], this compound came in with a 50% inhibitory concentration (IC50) of 466 ± 90 µM. Moreover, in experiment [8], the “rank order of inhibitory potency, AA-induced serotonin secretion” value was “IX>X>1” and it took 814 ± 90 µM to reach half-maximal inhibition (IC50). Further, in experiment [9], the “rank order of inhibitory potency against U46619-induced serotonin secretion” value is reported as “dihydrobenzofuran>benzopyranone>clofibric acid”, the half-inhibitory concentration (IC50) was 2380 ± 394 µM and the “fold more potent than clofibric acid as inhibitor of U46619-evoked serotonin secretion” value is recorded as “about 2 fold”. Also, in experiment [10], the “rank order of inhibitory potency, thrombin-induced AA release” value was “IX>>X=1; also recorded: IX>1=X”; the IC50 was found to be 432 µM; the “inhibition of AA release (in words)” value is given as “blocks AA release from platelet membrane phospholipids; also recorded: potent inhibitor of thrombin-induced AA release”.

For `O=C(O)C1Cc2cc(Cl)ccc2O1` (stereo not drawn) [compound X, 5-chloro-2,3-dihydrobenzofuran-2-carboxylic acid], in [4], the “inhibition of (secondary wave of) ADP-induced aggregation (in words)” value is “concentration-dependent inhibition”; the “rank order of potency, aggregation and serotonin secretory responses to ADP and AA” value is recorded as “benzopyranone analogue>2,3-dihydrobenzofuran analog>clofibric acid”; the IC50 is 533 ± 71 µM; the “fold more potent than clofibric acid as inhibitor of ADP-induced platelet activation” value was “about 2 fold”. For the same compound, in experiment [5], the “inhibition of AA-induced aggregation (in words)” value is on record as “concentration-dependent inhibition”; the “rank order of inhibitory potency, AA-induced aggregation” value was “IX>X>1”; the midpoint of inhibition, the IC50, lay at 851 ± 85 µM; the “fold more potent inhibitor of AA-induced aggregation” value is “approximately 4 fold”. In experiment [5], the “antiaggregatory potency relative to clofibric acid (in words)” value was “more potent antiaggregatory agents than clofibric acid”. Besides, in experiment [6], the “inhibition of U46619-induced aggregation/responses (in words)” value is on record as “antagonizes the proaggregatory actions of the thromboxane A2 agonist U46619; also recorded: concentration-dependent inhibitors of U46619-induced aggregation” and the IC50 worked out at 1480 ± 277 µM. Moreover, half-maximal inhibition in experiment [7] (IC50) required 419 ± 90 µM. For the same compound, in experiment [8], the “rank order of inhibitory potency, AA-induced serotonin secretion” value is recorded as “IX>X>1” and the IC50 came out at 1010 ± 142 µM. Further, in experiment [9], the “rank order of inhibitory potency against U46619-induced serotonin secretion” value is “dihydrobenzofuran>benzopyranone>clofibric acid”, the IC50 was determined as 1440 ± 239 µM and the “fold more potent than clofibric acid as inhibitor of U46619-evoked serotonin secretion” value was “about 2 fold”. For the same compound, in experiment [10], the “rank order of inhibitory potency, thrombin-induced AA release” value is reported as “IX>>X=1; also recorded: IX>1=X”; the IC50 is 3870 µM; the “inhibition of AA release (in words)” value is “blocks the release and subsequent metabolism of AA”. This compound also showed an IC50 in experiment [11] of 908 ± 137 µM.
